Experimental data published in US11243205B2, “Method of diagnosis of breast cancer” (LA TROBE UNIVERSITY, priority 2015, dated 2022).

Columns and labels:
PD-L1 = test: FACS analysis for PD-L1 cell surface expression after interferon treatment; format: cell-based; conditions: IFNα 1000 IU/ml, 48 hours, **p<0.01
Procedure: A loss of IRF9 causes PD-L1 expression to be increased after IFNα stimulation. FACS analysis for PD-L1 cell surface expression using PE tagged anti-PD-L1, MIH5 (1:50). Cells were treated with IFNα (1000 IU/ml) or IFNγ (10 ng/ml) for 48 hours prior to FACS. Data is represented as normalised mean fluorescence intensity (MFI). Error bars represent SEM, n=3. Statistical significance values equal: **p<0.01.

4T1.2-luc2 cells = test: poly(I:C) treatment of mice bearing 4T1.2-luc2 mammary fat pad tumours, metastasis by bioluminescence and QPCR; format: in vivo, balb/c mice; conditions: 25 ug poly(I:C) 3x weekly IV from day 4; primary tumour resected at 0.4 g; bioluminescence and QPCR of luciferase vs vimentin; *p<0.05, **p<0.01
Procedure: From day 4, mice were treated with 25 ug poly(I:C) or control 3× weekly IV. After primary tumour resection at 0.4 g, mice were monitored for metastasis by bioluminescence (A) and by QPCR analysis of luciferase expression compared to vimentin at end point (B). *p<0.05, **p<0.01.
Expression of Irf9 is knocked out in balb/c (66c14, 4T1) and C57 B1/6 (EO771, PyMT) mouse cell lines and the impact on tumour cell proliferation and orthotopic tumour growth and metastasis in vivo, is required. Associated changes in tumour infiltating and circulating immune cells, impact on tumour cell susceptibility to immune effector cells in vitro and the impact of NK cell specific loss of IFN signalling is measured. • a) Using TALEN technology (Boch J. TALEs of genome targeting. Nature biotechnology. 2011; 29(2):135-6) an Irf9 knockout 4T1 cell line has been generated (FIG. 5). This is repeated in 66c14, EO771 and PyMT cell lines. Given that Irf7 is induced by the ISGF3 complex of STAT1/2 and Irf9, Irf9 loss will likely directly result in reduction of Irf7. Irf7 we can also be knocked out directly in these cells. • The impact of Irf9 loss is measured on cellular proliferation using the SRB assay. […] The activation and function of NK cells is measured by measuring the expression of NKG2D, DNAM-1 and IFNγ on NKp46^+ NK cells. […]

4T1.2-Luc2 = test: neo-adjuvant poly(I:C) therapy, primary tumour growth and survival; format: in vivo, Balb/c mice
Procedure: Female 8-week-old Balb/c mice were administered poly(I:C) (25 μg, I.V., thrice weekly) and/or doxorubicin (4 mg/kg, twice weekly) beginning 2 days post tumour cell inoculation (100,000 4T1.2-Luc2 IMFP). Differences in primary tumour growth were detectable 6 days after tumour cell inoculation using bioluminescent imaging (of four mice representative of the larger cohort) (A). Therapy was ceased and primary tumours were surgically removed and weighed 12 days post tumour cell injection (B). n=10 mice per group, error bars represent the 95% CI, *p<0.05, **p<0.01, ***p<0.001 using Student's t-tests.
Mice used in FIG. 2 continued to undergo weekly bioluminescent imaging to visualise the kinetics of metastatic spread. (A) Images taken 19 and 23 days post tumour cell inoculation are of the same four mice in identical order and representative of the larger cohort. (B) Mice were individually sacrificed at first signs of metastatic distress and dates recorded to generate Kaplan-Meier survival estimates. […]
Tumour-bearing mice are treated with poly(I:C), a stable derivative of poly(I:C):poly ICLC that is currently in clinical trials (Hiltonol™, Oncovir) or recombinant IFNα1 in early and late treatment settings and the impact of such treatments on immune activation and function, primary tumour growth and metastasis is measured. […]

Substance	PD-L1 expression in cells with loss of IRF9 (PD-L1)	metastasis to lung and bone (4T1.2-luc2 cells)	survival (Kaplan-Meier) (4T1.2-Luc2; neo-adjuvant therapy ceased day 12, mice sacrificed at first signs of metastatic distress, ***p<0.001)	primary tumour growth (4T1.2-Luc2; poly(I:C) 25 μg I.V. thrice weekly from 2 days post inoculation, bioluminescence day 6, tumour weight day 12)
IFNα	increased			
poly(I:C)		reduces metastasis to lung and bone	prolongs survival	reduces primary tumour growth
